Where only a bound is given, the exact number is not on record here.

The target in this assay is histone deacetylase (HDAC). As to the kind of experiment: Inhibition of Histone Deacetylase Enzymatic Activity. Type of assay: biochemical. The conditions noted are these: substrate Boc-Lys(Ac)-AMC, Fluor-de-Lys developer, 37° C., 20 min; against one or more of HDAC-1 to HDAC-11, SirT1 to SirT7 (isoform not given); read-out: HDAC Inhibitory Activity (IC50). The essentials: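 Enzyme preincubated with compound at room temperature in 25 mM HEPES pH 8.0, 137 mM NaCl, 2.7 mM KCl, 1 mM MgCl2; reaction started at 37 °C with Boc-Lys(Ac)-AMC substrate. Fluorescence read ex 360/em 470 nm after 10 min dark incubation; activity binned into ranges A–D (<0.05 to <10 μM).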
Take `O=C(CCCCCN1C(=O)[C@H](CC2CCCCC2)NC(=O)c2ccccc21)NO` [Compound 68b20, 6-((S)-3-(Cyclohexylmethyl)-2,3,4,5-tetrahydro-2,5-dioxobenzo[e][1,4]diazepin-1-yl)-N-hydroxyhexanamide]: the half-maximal inhibitory concentration (IC50) lay within 0.5 to 2 µM.

Take `CC(C)(C)Oc1ccc(C[C@@H]2C(=O)Nc3ccccc3N2Cc2ccc(C(=O)NO)cc2)cc1` [Compound 54b11, (R)-4-((2-(4-tert-butoxybenzyl)-3-oxo-3,4-dihydroquinoxalin-1(2H)-yl)methyl)-N-hydroxybenzamide]: the IC50 is less than 0.05 µM.

Regarding `O=C(NO)c1ccc(CN2C(=O)CNC(=O)[C@H]2Cc2ccccc2)cc1` [Compound 136b, (R)-4-((2-Benzyl-3,6-dioxopiperazin-1-yl)methyl)-N-hydroxybenzamide], the IC50 was less than 0.05 µM.

For `CC(C)[C@H]1C(=O)Nc2cc(C(=O)NO)ccc2N1Cc1ccc(C(=N)NO)cc1` [Compound 16f, (S)—N-hydroxy-1-(4-(N-hydroxycarbamimidoyl)benzyl)-2-isopropyl-3-oxo-1,2,3,4-tetrahydroquinoxaline-6-carboxamide], the IC50 is 0.05 to 0.5 µM.

Regarding `CC(C)[C@@H]1NC(=O)c2ccc(C(=O)NO)cc2NC1=O` [Compound 97b, (S)-N-Hydroxy-3-isopropyl-2,5-dioxo-2,3,4,5-tetrahydro-1H-benzo[e][1,4]diazepine-8-carboxamide], the IC50 is 2 to 10 µM.

As for `O=C(CCCCCN1C(=O)C2(CCCC2)NC(=O)c2ccccc21)NO` [Compound 68b16, 6-(3,3-Spirocyclopentyl-2,5-dioxo-2,3,4,5, tetrahydrobenzo [e][1,4]diazepin-1-yl)-N-hydroxyhexanamide], the IC50 was in the range of 2 to 10 µM.

`O=C(NO)c1ccc2c(c1)NC(=O)[C@@H](CC1CCCCC1)NC2=O` [Compound 97g, (R)-3-(Cyclohexylmethyl)-N-hydroxy-2,5-dioxo-2,3,4,5-tetrahydro-1H-benzo[e][1,4]diazepine-8-carboxamide]: the IC50 is 2 to 10 µM.

As for `O=C1CNC(=O)c2ccc(C(=O)NO)cc2N1` [Compound 97k, N-Hydroxy-2,5-dioxo-2,3,4,5-tetrahydro-1H-benzo[e][1,4]diazepine-8-carboxamide], the IC50 lay in the range of 2 to 10 µM.

`O=C(CCCCC[C@@H]1NC(=O)c2cc(NC(=O)OCc3ccccc3)ccc2NC1=O)NO` [Compound 92b, (S)-Benzyl 3-(6-(hydroxyamino)-6-oxohexyl)-2,5-dioxo-2,3,4,5-tetrahydro-1H-benzo[e][1,4]diazepin-7-ylcarbamate]: the 50% inhibitory concentration (IC50) lay within 0.05 to 0.5 µM.

Regarding `CC(C)[C@H]1C(=O)Nc2cc(C(=O)NO)ccc2N1Cc1ccccc1` [Compound 16g, (S)-1-benzyl-1,2,3,4-tetrahydro-N-hydroxy-2-isopropyl-3-oxoquinoxaline-6-carboxamide], the 50% inhibitory concentration (IC50) was in the range of 2 to 10 µM.

In the case of `O=C(CCCCCN1C(=O)[C@H](C2CCCCC2)NC(=O)c2ccccc21)NO` [Compound 68b19, 6-((S)-3-Cyclohexyl-2,3,4,5-tetrahydro-2,5-dioxobenzo[e][1,4]diazepin-1-yl)-N-hydroxyhexanamide], the IC50 lay within 0.5 to 2 µM.

As to `Nc1ccccc1NC(=O)c1ccc2c(c1)NC(=O)[C@H](Cc1c[nH]c3ccccc13)N2` [Compound 5c, (S)-2-((1H-indol-3-yl)methyl)-N-(2-aminophenyl)-1,2,3,4-tetrahydro-3-oxoquinoxaline-6-carboxamide], the IC50 lay in the range of 2 to 10 µM.

As to `CC(C)(C)Oc1ccc(C[C@@H]2Nc3ccc(C(=O)NO)cc3NC2=O)cc1` [Compound 4h, (S)-2-(4-tert-butoxybenzyl)-1,2,3,4-tetrahydro-N-hydroxy-3-oxoquinoxaline-6-carboxamide], the IC50 was 2 to 10 µM.

With `O=C(NO)c1ccc(CN2c3ccccc3NC(=O)[C@H]2Cc2cccc(C(F)(F)F)c2)cc1` [Compound 54b19, (R)—N-hydroxy-4-((2-(3-(trifluoromethyl)benzyl)-3-oxo-3,4-dihydroquinoxalin-1(2H)-yl)methyl)benzamide], the IC50 was in the range of 0.05 to 0.5 µM.

Turning to `O=C(NO)c1ccc2c(c1)NC(=O)[C@@H](Cc1c[nH]c3ccccc13)NC2=O` [Compound 97d, (R)-3-((1H-Indol-3-yl)methyl)-N-hydroxy-2,5-dioxo-2,3,4,5-tetrahydro-1H-benzo[e][1,4]diazepine-8-carboxamide], the half-inhibitory concentration (IC50) was 0.5 to 2 µM.

Turning to `O=C(CCCCCC1NC(=O)c2ccccc2N(Cc2ccccc2)C1=O)NO` (centres unmarked) [Compound 80, 6-(1-Benzyl-2,3,4,5-tetrahydro-2,5-dioxo-1H-benzo[e][1,4]diazepin-3-yl)-N-hydroxyhexanamide], the IC50 was in the range of 0.05 to 0.5 µM.

Turning to `O=C(NO)c1ccc(CN2c3ccccc3NC(=O)[C@H]2Cc2cccs2)cc1` [Compound 56a, 4-(((R)-2,3-Dihydro-2-oxo-3-((thiophen-2-yl)methyl)quinoxalin-4(1H)-yl)methyl)-N-hydroxybenzamide], the IC50 fell in the range of 0.5 to 2 µM.

For the compound `CC(C)[C@@H]1Nc2ccc(NC(=O)CCCCCCC(=O)NO)cc2NC1=O` [Compound 24a, N1—((S)-1,2,3,4-Tetrahydro-2-isopropyl-3-oxoquinoxalin-6-yl)-N8-hydroxyoctanediamide], the IC50 was 0.05 to 0.5 µM.

With `C[C@H]1NC(=O)c2ccccc2N(CCCCCC(=O)NO)C1=O` [Compound 68b23, 6-((R)-2,3,4,5-Tetrahydro-3-methyl-2,5-dioxobenzo[e][1,4]diazepin-1-yl)-N-hydroxyhexanamide], the half-inhibitory concentration (IC50) fell in the range of 0.05 to 0.5 µM.

As to `O=C(CO[C@@H]1CC(C(=O)Nc2cccc3cccnc23)N(C(=O)OCc2ccccc2)C1)NO` (stereo partly drawn) [Compound 112b, (2S,4R)-benzyl 4-(2-(hydroxyamino)-2-oxoethoxy)-2-(quinolin-8-ylcarbainoyl) pyrrolidine-1-carboxylate], the IC50 was in the range of 0.5 to 2 µM.

Take `COc1ccc(CN2c3ccccc3NC(=O)[C@H]2CCC(=O)CCC(=O)NO)cc1` [Compound 43, 6-((R)-1-(4-methoxybenzyl)-1,2,3,4-tetrahydro-3-oxoquinoxalin-2-yl)-N-hydroxy-4-oxy-hexanamide]: the concentration for half-maximal inhibition (IC50) lay within 2 to 10 µM.

As for `Nc1ccccc1NC(=O)c1ccc(CN2c3ccccc3NC(=O)[C@@H]2Cc2cccs2)cc1` [Compound 54c, (S)—N-(2-aminophenyl)-4-((3-oxo-2-(thiophen-2-ylmethyl)-3,4-dihydroquinoxalin-1(2H)-yl)methyl)benzamide], the concentration for half-maximal inhibition (IC50) was 0.05 to 0.5 µM.

In the case of `COc1ccc(CN2C(=O)C(CCCCCC(=O)NO)NC(=O)c3ccccc32)cc1` (centres unmarked) [Compound 82, 6-(1-(4-Methoxybenzyl)-2,3,4,5-tetrahydro-2,5-dioxo-1H-benzo[e][1,4]diazepin-3-yl)-N-hydroxyhexanamide], the concentration for half-maximal inhibition (IC50) lay in the range of 0.5 to 2 µM.
